This is an account of results in article PMC8887546, “Design and Synthesis of Brain Penetrant Glycopeptide Analogues of PACAP With Neuroprotective Potential for Traumatic Brain Injury and Parkinsonism” (Frontiers in drug discovery, 2022).

This assay deals with C57BL/6 mice, diffuse TBI. The experiment in a line: Flow cytometry analysis of blood after TBI. Type of assay: in vivo, mouse. The following applies: 10 mg/kg i.p. 30 min prior to TBI. As to the method:
30 min prior to TBI or sham injury, mice were randomly assigned to a therapeutic group and received an intraperitoneal injection of 2LS80Mel (10 mg/kg) or sterile saline (0.25 ml). Groups were as follows: TBI-2LS80Mel n = 17; TBI-vehicle n = 17; sham n = 22 (vehicle n = 11, 2LS80Mel n = 11).
For injury induction 24 h post-surgery, mice were re-anesthetized with 5% isoflurane delivered for 3 min. The cap was removed from the injury-hub assembly and the dura was visually inspected through the hub to ensure it was intact with no debris. The hub was then filled with normal saline and attached to an extension tube connected to the male end of the fluid percussion device (Custom Design and Fabrication, Virginia Commonwealth University, Richmond, VA). An injury of moderate severity for our injury model (1.4 atm) was administered by releasing the pendulum onto the fluid-filled cylinder following the return of a toe-pinch response. Sham mice underwent the same procedure except the pendulum was not released. Injured mice were monitored for presence of a forearm fencing response and righting reflex times were recorded as indicators of injury severity ([Hosseini and Lifshitz, 2009]). The righting reflex time is the total time from the initial impact until the mouse spontaneously rights itself from a supine position. The fencing response is a tonic posturing characterized by extension and flexion of opposite arms that has been validated as an overt indicator of injury severity ([Hosseini and Lifshitz, 2009]). The injury hub was removed, and the brain was inspected for uniform herniation and integrity of the dura. The incision was cleaned with saline and closed using sutures. Moderately brain-injured mice had righting reflex recovery times greater than 4 min and a positive fencing response. […] After spontaneously righting, mice were placed in a heated recovery cage and monitored until they were ambulatory (approximately 5–15 min) before being returned to their piezoelectric sleep cage (see below). […]
For orientation: Flow cytometry measures light scatter and fluorescence of single cells or particles in a stream.

Consider `CC[C@H](C)[C@H](NC(=O)CNC(=O)[C@H](CC(=O)O)NC(=O)[C@H](CO)NC(=O)[C@@H](N)Cc1c[nH]cn1)C(=O)N[C@@H](Cc1ccccc1)C(=O)N[C@H](C(=O)N[C@@H](CC(=O)O)C(=O)N[C@@H](CO)C(=O)N[C@@H](Cc1ccc(O)cc1)C(=O)N[C@@H](CO)C(=O)N[C@@H](CCCNC(=N)N)C(=O)N[C@@H](Cc1ccc(O)cc1)C(=O)N[C@@H](CCCNC(=N)N)C(=O)N[C@@H](CCCCN)C(=O)N[C@@H](CCC(N)=O)C(=O)N[C@@H](CC(C)C)C(=O)N[C@@H](C)C(=O)N[C@H](C(=O)N[C@@H](CCCCN)C(=O)N[C@@H](CCCCN)C(=O)N[C@@H](Cc1ccc(O)cc1)C(=O)N[C@@H](CC(C)C)C(=O)N[C@@H](C)C(=O)N[C@@H](C)C(=O)N[C@H](C(=O)N[C@@H](CC(C)C)C(=O)N[C@@H](CO[C@@H]1O[C@H](CO[C@H]2O[C@H](CO)[C@H](O)[C@H](O)[C@H]2O)[C@@H](O)[C@H](O)[C@H]1O)C(N)=O)C(C)C)C(C)C)[C@@H](C)O` [Compound 2LS80Mel], for which the “CD11b+CD115+Ly6Chigh monocyte population in blood” value is given as “increase was not seen”, the “CD11b+Ly6Chigh monocyte population in blood” value is recorded as “increase was not seen” and the “Neutrophil populations in blood” value is reported as “no differences”.
